The NIST ThermoML archive (doi:10.1016/j.jct.2018.08.035)
± gives the expanded uncertainty stated by the source.

Assay: xn = mol fraction of the nth substance listed
Settings: 100 kPa, Liquid, Vibrating tube method

CCC(O)CC [3-pentanol] + C[N+](=O)[O-]
Settings | mass density [kg/m3]
286.95 K, x1 = 0.629 | 904.586 ± 2
287.05 K, x1 = 0.629 | 904.424 ± 2
287.15 K, x1 = 0.629 | 904.324 ± 2
287.25 K, x1 = 0.629 | 904.302 ± 2
287.35 K, x1 = 0.629 | 904.234 ± 2
287.45 K, x1 = 0.629 | 904.174 ± 2
287.55 K, x1 = 0.629 | 904.105 ± 2
287.66 K, x1 = 0.629 | 904.02 ± 2
287.75 K, x1 = 0.629 | 903.747 ± 2.1
287.86 K, x1 = 0.629 | 903.73 ± 2.1
287.96 K, x1 = 0.629 | 903.653 ± 2.1
288.06 K, x1 = 0.629 | 903.559 ± 2.1
288.16 K, x1 = 0.629 | 903.339 ± 2.2
288.26 K, x1 = 0.629 | 903.249 ± 2.2
288.36 K, x1 = 0.629 | 903.208 ± 2.2
288.46 K, x1 = 0.629 | 903.194 ± 2.2
288.56 K, x1 = 0.629 | 903.023 ± 2.2
288.66 K, x1 = 0.629 | 902.916 ± 2.3
288.75 K, x1 = 0.629 | 902.883 ± 2.3
288.86 K, x1 = 0.629 | 902.656 ± 2.3
288.95 K, x1 = 0.629 | 902.639 ± 2.2
289.06 K, x1 = 0.629 | 902.563 ± 2.2
289.15 K, x1 = 0.246 | 1016.83 ± 2.1
289.15 K, x1 = 0.266 | 1014.93 ± 2.1
289.15 K, x1 = 0.275 | 1013.85 ± 2.1
289.15 K, x1 = 0.3 | 1007.8 ± 2.1
289.15 K, x1 = 0.325 | 1002.84 ± 2.1
289.15 K, x1 = 0.338 | 1001.68 ± 2.1
289.15 K, x1 = 0.363 | 999.874 ± 2.1
289.15 K, x1 = 0.382 | 999.889 ± 2.1
289.15 K, x1 = 0.407 | 999.35 ± 2.1
289.15 K, x1 = 0.486 | 980.562 ± 2.1
289.15 K, x1 = 0.488 | 978.895 ± 2.1
289.15 K, x1 = 0.546 | 955.829 ± 2.2
289.15 K, x1 = 0.573 | 937.786 ± 2.3
289.15 K, x1 = 0.615 | 911.044 ± 2.2
289.15 K, x1 = 0.629 | 902.484 ± 2.2
289.16 K, x1 = 0.587 | 928.424 ± 2.5
289.25 K, x1 = 0.246 | 1015.69 ± 2.1
289.25 K, x1 = 0.266 | 1014.12 ± 2.1
289.25 K, x1 = 0.275 | 1013.22 ± 2.1
289.25 K, x1 = 0.3 | 1007.17 ± 2.1
289.25 K, x1 = 0.325 | 1002.28 ± 2.1
289.25 K, x1 = 0.338 | 1000.75 ± 2.1
289.25 K, x1 = 0.363 | 998.168 ± 2.1
289.25 K, x1 = 0.382 | 998.358 ± 2.1
289.25 K, x1 = 0.407 | 997.887 ± 2.1
289.25 K, x1 = 0.414 | 998.161 ± 2.1
289.25 K, x1 = 0.486 | 979.734 ± 2.1
289.25 K, x1 = 0.488 | 978.223 ± 2.1
289.25 K, x1 = 0.546 | 953.328 ± 2.2
289.25 K, x1 = 0.573 | 937.432 ± 2.4
289.25 K, x1 = 0.587 | 924.098 ± 2.3
289.25 K, x1 = 0.629 | 902.36 ± 2.2
289.26 K, x1 = 0.615 | 910.892 ± 2.1
289.35 K, x1 = 0.3 | 1006.58 ± 2.1
289.35 K, x1 = 0.338 | 999.725 ± 2.1
289.36 K, x1 = 0.246 | 1014.41 ± 2.1
289.36 K, x1 = 0.266 | 1013.24 ± 2.1
289.36 K, x1 = 0.275 | 1012.41 ± 2.1
289.36 K, x1 = 0.325 | 1001.72 ± 2.1
289.36 K, x1 = 0.363 | 996.975 ± 2
289.36 K, x1 = 0.382 | 996.614 ± 2.1
289.36 K, x1 = 0.407 | 996.236 ± 2
289.36 K, x1 = 0.414 | 996.775 ± 2.1
289.36 K, x1 = 0.486 | 978.988 ± 2.1
289.36 K, x1 = 0.488 | 977.267 ± 2.1
289.36 K, x1 = 0.546 | 952.752 ± 2.2
289.36 K, x1 = 0.573 | 936.899 ± 2.4
289.36 K, x1 = 0.587 | 923.859 ± 2.3
289.36 K, x1 = 0.615 | 909.942 ± 2.3
289.36 K, x1 = 0.629 | 902.109 ± 2.2
289.45 K, x1 = 0.246 | 1013.13 ± 2.1
289.45 K, x1 = 0.266 | 1012.22 ± 2.1
289.45 K, x1 = 0.275 | 1011.52 ± 2.1
289.45 K, x1 = 0.3 | 1005.82 ± 2.1
289.45 K, x1 = 0.325 | 1001.04 ± 2.1
289.45 K, x1 = 0.338 | 998.278 ± 2
